In brackets after ≈: the same amount, converted by molar mass.
Columns and labels:
Format in all cases: cell-based
[1] = tested on: Streptococcus pyogens (ATCC8668); assay: Microtitre plate assay, IC90 determination, SPY 8668; settings: 90% inhibitory concentration for bacterial growth, 37° C., 24 hours, resazurin fluorescence
Procedure: (§1) The bacteria used in this study were grown overnight in flasks containing 100 ml Mueller-Hinton Broth (Becton Dickinson—cat. no. 275730) in sterile de-ionized water, with shaking, at 37° C. Stocks (0.5 ml/tube) were stored at −70° C. until use. Bacteria titrations were performed in microtiter plates to detect the TCID50, in which the TCID50 represents the dilution that gives rise to bacterial growth in 50% of inoculated cultures.
(§2) In general, an inoculum level of approximately 100 TCID50 was used for susceptibility testing.
(§3) Flat-bottom, sterile 96-well plastic microtiter plates were filled with 180 μl of sterile deionized water, supplemented with 0.25% BSA. Subsequently, stock solutions (7.8× final test concentration) of compounds were added in 45 μl volumes in column 2. Serial five-fold dilutions (45 μl in 180 μl) were made directly in the microtiter plates from column 2 to reach column 11. Untreated control samples with (column 1) and without (column 12) inoculum were included in each microtiter plate. Depending on the bacteria type, approximately 10 to 60 CFU per well of bacteria inoculum (100 TCID50), in a volume of 100 μl in 2.8× Mueller-Hinton broth medium, was added to the rows A to H, except column 12. The same volume of broth medium without inoculum was added to column 12 in row A to H. The cultures were incubated at 37° C. for 24 hours under a normal atmosphere (incubator with open air valve and continuous ventilation). At the end of incubation, one day after inoculation, the bacterial growth was quantitated fluorometrically. Therefore resazurin (0.6 mg/ml) was added in a volume of 20 μl to all wells 3 hours after inoculation, and the plates were re-incubated overnight. A change in colour from blue to pink indicated the growth of bacteria. The fluorescence was read in a computer-controlled fluorometer (Cytofluor Biosearch) at an excitation wavelength of 530 nm and an emission wavelength of 590 nm. The % growth inhibition achieved by the compounds was calculated according to standard methods. The IC90 (expressed in μg/ml) was defined as the 90% inhibitory concentration for bacterial growth.
(§4) BSU 3639 means Bacillus subtilis (ATCC43639); ECO 25922 means Escherichia coli (ATCC25922); EFA 14506 means Enterococcus faecalis (ATCC14506); EFA 29212 means Enterococcus faecalis (ATCC29212); LMO 49594 means Listeria monocytogenes (ATCC49594); PAE 27853 means Pseudomonas aeruginosa (ATCC27853); SMU 33402 means Streptococcus mutans (ATCC33402); SPN 6305 means Streptococcus pneumoniae (ATCC6305); SPY 8668 means Streptococcus pyogens (ATCC8668); STA 43300 means Staphylococcus aureus (ATCC43300); STA 25923 means Staphylococcus aureus (ATCC25923); STA 29213 means Staphylococcus aureus (ATCC29213); STA RMETH means methicilline resistant Staphylococcus aureus (MRSA) (a clinical isolate from the University of Antwerp). ATCC means American type tissue culture.

[2] = tested on: Streptococcus mutans (ATCC33402); assay: Microtitre plate assay, IC90 determination, SMU 33402; settings: 90% inhibitory concentration for bacterial growth, 37° C., 24 hours, resazurin fluorescence
Procedure: as §1, §2, §3, §4

[3] = tested on: Listeria monocytogenes (ATCC49594); assay: Microtitre plate assay, IC90 determination, LMO 49594; settings: 90% inhibitory concentration for bacterial growth, 37° C., resazurin fluorescence; for IC90 (μg/ml) LMO 49594: 24 hours
Procedure: as §1, §2, §3, §4

[4] = tested on: Streptococcus pneumoniae (ATCC6305); assay: Microtitre plate assay, IC90 determination, SPN 6305; settings: 90% inhibitory concentration for bacterial growth, 37° C., resazurin fluorescence; for IC90 (μg/ml) SPN 6305: 24 hours; for IC90: Streptococcus pneumoniae, ATCC6305, 24 h, read-out: IC90 (μg/ml) SPN 6305
Procedure: as §1, §2, §3, §4

IC90 (μg/ml) SMU 33402 [2]	IC90 (μg/ml) SPN 6305 [4]	Compound	other results
10.4 µg/mL (≈ 19.9 µM)		COc1nc2ccc(Br)cc2cc1C(c1ccccc1)C(O)(CC[N+](C)(C)[O-])c1ccccc1 (racemic) [Compound 11]	IC90 (μg/ml) SPY 8668 [1]: 11.7 µg/mL (≈ 22.4 µM); IC90 (μg/ml) LMO 49594 [3]: 11.7 µg/mL (≈ 22.4 µM)
	5.9 µg/mL (≈ 11.1 µM)	COc1nc2ccc(Br)cc2cc1C(c1ccccc1)C(O)(CCn1cncn1)c1ccccc1 (racemic) [Compound 53]	
	0.6 µg/mL (≈ 1.06 µM)	COc1nc2ccc(Br)cc2cc1C(c1ccccc1)C(O)(CCN1CCSCC1)c1ccccc1 (racemic) [Compound 55]	
5.9 µg/mL (≈ 11.3 µM)		COc1nc2ccc(Br)cc2cc1C(c1ccccc1)C(O)(CC[N+](C)(C)[O-])c1ccccc1 (racemic) [Compound 58]	IC90 (μg/ml) SPY 8668 [1]: 8.3 µg/mL (≈ 15.9 µM)
18.9 µg/mL (≈ 31.6 µM)	26.7 µg/mL (≈ 44.7 µM)	COc1nc2ccc(Br)cc2cc1C(c1ccccc1)C(O)(CCN1CCOCC1)c1ccc2ccccc2c1 (racemic) [Compound 139]	
9.5 µg/mL (≈ 15.9 µM)		COc1nc2ccc(Br)cc2cc1C(c1ccccc1)C(O)(CCN1CCOCC1)c1ccc2ccccc2c1 (racemic) [Compound 140]	
		COc1nc2ccc(Br)cc2cc1C(c1ccccc1)C(O)(CCN1CCN(C)CC1)c1cccc2ccccc12 (racemic) [Compound 149]	IC90 (μg/ml) LMO 49594 [3]: 12.2 µg/mL (≈ 20 µM)
14.3 µg/mL (≈ 25.2 µM)	14.3 µg/mL (≈ 25.2 µM)	COCCOc1nc2ccc(Br)cc2cc1C(c1ccccc1)C(O)(CCN(C)C)c1cccc(F)c1 (racemic) [Compound 165]	IC90 (μg/ml) SPY 8668 [1]: 11.3 µg/mL (≈ 19.9 µM)
		COc1nc2ccc(Br)cc2cc1C(c1ccccc1)C(O)(CCN1CCCC1)c1ccc2ccccc2c1 (racemic) [Compound 171]	IC90 (μg/ml) SPY 8668 [1]: 11.6 µg/mL (≈ 19.9 µM)
		COc1nc2cc(C)c(Br)cc2cc1C(c1ccccc1)C(O)(CCN(C)C)c1cccc(F)c1 (racemic) [Compound 215]	IC90 (μg/ml) LMO 49594 [3]: 10.7 µg/mL (≈ 19.9 µM)
	14.3 µg/mL (≈ 25.1 µM)	COc1nc2cc(C)c(Br)cc2cc1C(c1ccccc1)C(O)(CCN(C)C)c1cccc2ccccc12 (racemic) [Compound 226]	
	5.0 µg/mL (≈ 9 µM)	COc1nc2cc(C)c(Br)cc2cc1C(c1ccccc1)C(O)(CCN(C)C)c1cc(F)cc(F)c1 (racemic) [Compound 227]	
22.5 µg/mL (≈ 44.6 µM)	5.0 µg/mL (≈ 9.91 µM)	COc1nc2cc(C)c(C)cc2cc1C(c1ccccc1)C(O)(CCN(C)C)c1cccc2ccccc12 (racemic) [Compound 229]	
	15.9 µg/mL (≈ 25.2 µM)	CCN(CCC(O)(c1ccc(F)cc1F)C(c1ccccc1)c1cc2cc(Br)ccc2nc1OC)Cc1ccccc1 (racemic) [Compound C]	
22.6 µg/mL (≈ 44.7 µM)	25.3 µg/mL (≈ 50.1 µM)	COc1nc2ccc(Br)cc2cc1C(c1ccccc1)C(O)(CCN(C)C)c1ccccc1 (single isomer, unassigned) [F]	IC90 (μg/ml) SPY 8668 [1]: 22.6 µg/mL (≈ 44.7 µM)
		COc1nc2ccc(Br)cc2cc1C(c1ccccc1)C(O)(CCN(C)C)c1ccccc1 (stereo not drawn) [Compound 4]	IC90 [4]: 12.7 µg/mL (≈ 25.1 µM)
10.4 µg/mL (≈ 20 µM)		CCOc1nc2ccc(Br)cc2cc1C(c1ccccc1)C(O)(CCN(C)C)c1ccccc1 (stereo not drawn) [Compound 5]	
		COc1nc2ccc(Br)cc2cc1C(c1ccccc1)C(O)(CCN(C)C)c1ccc(Cl)cc1 (stereo not drawn) [Compound 17]	IC90 [4]: 0.5 µg/mL (≈ 0.926 µM); IC90 ([3]; Listeria monocytogenes, ATCC49594, 24 h, read-out: IC90 (μg/ml) LMO 49594): 10.8 µg/mL (≈ 20 µM)
	13.4 µg/mL (≈ 25.1 µM)	CCN(CC)CCC(O)(c1ccccc1)C(c1ccccc1)c1cc2cc(Br)ccc2nc1OC (stereo not drawn) [Compound 19]	
	2.6 µg/mL (≈ 5.08 µM)	COc1nc2ccc(Br)cc2cc1C(c1ccccc1)C(O)(CCN(C)C)c1cccs1 (stereo not drawn) [Compound 20]	
		COc1nc2ccc(Br)cc2cc1C(c1ccccc1)C(O)(CCN(C)C)c1ccsc1 (stereo not drawn) [Compound 24]	IC90 [4]: 10.2 µg/mL (≈ 19.9 µM)
	12.1 µg/mL (≈ 22.4 µM)	COc1nc2ccc(Br)cc2cc1C(c1ccc(Cl)cc1)C(O)(CCN(C)C)c1ccccc1 (stereo not drawn) [Compound 37]	
		COc1nc2ccc(Br)cc2cc1C(c1ccccc1)C(O)(CCN(C)C)c1cccc(F)c1 (stereo not drawn) [Compound 38]	IC90 (μg/ml) LMO 49594 [3]: 10.4 µg/mL (≈ 19.9 µM)
